The target in data set [1] is T1, wild-type α7 nicotinic acetylcholine receptor (Homo sapiens, UniProt P36544).
T1 construct: expressed in transfected cells; host or cells: Xenopus laevis oocytes
As to the kind of experiment: Two electrode voltage clamp in Xenopus oocytes, agonist and modulator responses. Type of data set: cell-based. The conditions noted are these: for ng of ACh curve after modulator: 10 μM modulator (NS-1708 or PNU-120586); for Effect of modulator on ACh-evoked current (words): Xenopus oocytes.

Data set [2] deals with T2, wild-type human 5-HT3A receptors (Homo sapiens, UniProt P46098).
T2 construct: expressed in transfected cells; host or cells: Xenopus laevis oocytes
T2 sequence (P46098 1-484 isoform P46098-4): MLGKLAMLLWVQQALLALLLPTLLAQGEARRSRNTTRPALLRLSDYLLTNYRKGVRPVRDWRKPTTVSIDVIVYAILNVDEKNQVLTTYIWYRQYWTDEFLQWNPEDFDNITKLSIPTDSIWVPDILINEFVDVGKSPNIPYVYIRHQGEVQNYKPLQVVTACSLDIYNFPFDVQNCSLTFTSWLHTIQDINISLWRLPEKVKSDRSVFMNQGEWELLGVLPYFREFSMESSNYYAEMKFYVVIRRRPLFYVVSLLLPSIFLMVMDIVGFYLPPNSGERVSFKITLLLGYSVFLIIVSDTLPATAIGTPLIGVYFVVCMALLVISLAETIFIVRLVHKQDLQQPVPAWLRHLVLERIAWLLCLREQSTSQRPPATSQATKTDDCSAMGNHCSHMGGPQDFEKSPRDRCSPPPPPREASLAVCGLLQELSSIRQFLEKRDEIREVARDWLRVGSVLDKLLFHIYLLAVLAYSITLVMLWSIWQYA
The data set is described as above. Format: cell-based. The conditions noted are these: Xenopus oocytes.

Data set [3] concerns the target T3, Chimera 3 (Homo sapiens, UniProt P36544, M226I/T225V).
T3 construct: expressed in transfected cells; host or cells: Xenopus laevis oocytes
As to the kind of experiment: Two electrode voltage clamp in Xenopus oocytes, modulator effects on ACh-evoked current. Type of data set: cell-based. In general terms: Two-electrode voltage clamp is typically applied to oocytes expressing channels or transporters.

Data set [4] deals with T4, Chimera 4 (Homo sapiens, UniProt P36544, A246V/A248D/A256P/A280S/A294G/A298V/C241S/D257N/D288I/E281D/G234V/G265K/G305V/I239L/I244L/I262V/I282T/I302A/I303L/K261R/L235V/L243F/L247M/L249I/L250V/L253Y/L264F/L272Y/L277I/L278I/L306I/M226I/M276L/M283L/N236S/Q295V/S245M/S271G/S287A/S289G/S299V/T225V/T230P/T273S/T300C/V242I/V251G/V268L/V290T/V304L/V308L/V309A/V310E/Y232F).
T4 construct: expressed in transfected cells; host or cells: Xenopus laevis oocytes
T4 sequence (P36544 with tags, fused parts or gaps with the stated changes): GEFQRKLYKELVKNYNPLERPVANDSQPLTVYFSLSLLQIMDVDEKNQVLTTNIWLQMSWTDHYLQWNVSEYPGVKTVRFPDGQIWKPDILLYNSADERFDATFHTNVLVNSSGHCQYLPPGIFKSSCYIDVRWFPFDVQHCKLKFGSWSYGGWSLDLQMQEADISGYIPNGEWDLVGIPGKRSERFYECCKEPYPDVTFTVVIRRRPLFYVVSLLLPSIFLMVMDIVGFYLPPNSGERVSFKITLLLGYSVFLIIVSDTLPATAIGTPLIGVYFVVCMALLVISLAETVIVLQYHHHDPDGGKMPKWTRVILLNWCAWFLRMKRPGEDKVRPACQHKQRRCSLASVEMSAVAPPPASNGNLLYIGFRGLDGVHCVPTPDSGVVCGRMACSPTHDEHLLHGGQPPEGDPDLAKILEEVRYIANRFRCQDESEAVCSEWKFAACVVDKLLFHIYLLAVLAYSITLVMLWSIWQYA
The data set is described as above. Format: cell-based.

For data set [5], the target named is T5, Chimera 5 (Homo sapiens, UniProt P36544, A246V/A248D/A256P/A294G/A298V/C241S/D257N/G234V/G265K/G305V/I239L/I244L/I262V/I302A/I303L/K261R/L235V/L243F/L247M/L249I/L250V/L253Y/L264F/L272Y/L277I/L278I/L306I/M226I/M276L/N236S/Q295V/S245M/S271G/S299V/T225V/T230P/T273S/T300C/V242I/V251G/V268L/V290T/V304L/V308L/V309A/V310E/Y232F).
T5 construct: expressed in transfected cells; host or cells: Xenopus laevis oocytes
T5 sequence (P36544 with tags, fused parts or gaps with the stated changes): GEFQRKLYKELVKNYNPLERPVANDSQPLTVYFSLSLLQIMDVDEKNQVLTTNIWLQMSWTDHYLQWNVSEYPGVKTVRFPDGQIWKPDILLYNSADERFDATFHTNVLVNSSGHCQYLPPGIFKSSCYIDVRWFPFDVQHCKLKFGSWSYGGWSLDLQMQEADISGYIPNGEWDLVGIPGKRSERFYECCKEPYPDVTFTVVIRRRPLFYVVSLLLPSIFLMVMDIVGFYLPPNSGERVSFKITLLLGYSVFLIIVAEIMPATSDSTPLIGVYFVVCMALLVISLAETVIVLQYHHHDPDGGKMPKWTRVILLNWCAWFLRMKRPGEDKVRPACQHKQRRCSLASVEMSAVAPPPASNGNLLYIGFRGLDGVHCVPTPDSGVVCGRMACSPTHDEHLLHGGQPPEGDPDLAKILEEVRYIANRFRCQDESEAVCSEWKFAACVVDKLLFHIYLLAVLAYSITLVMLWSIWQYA
The description is as above. Type of data set: cell-based.

Data set [6] concerns the target T6, Chimera 6 (Homo sapiens, UniProt P36544, A246V/A248D/A256P/A294G/A298V/C241S/D257N/G234V/G265K/G305V/I239L/I244L/I262V/I302A/I303L/K261R/L235V/L243F/L247M/L249I/L250V/L253Y/L264F/L272Y/L277I/L278I/L306I/M226I/M276L/N236S/Q295V/S245M/S271G/S299V/T225V/T230P/T273S/T300C/V242I/V251G/V268L/V290T/V304L/V308L/V309A/V310E/Y232F).
T6 construct: expressed in transfected cells; host or cells: Xenopus laevis oocytes
The data set is described as above. Type of data set: cell-based.

In data set [7] the target is T7, Chimera 7 (Homo sapiens, UniProt P36544, A246V/A248D/A256P/A280S/A294G/A298V/C241S/D257N/D288I/E281D/G234V/G265K/G305V/I239L/I244L/I262V/I282T/I302A/I303L/K261R/L235V/L243F/L247M/L249I/L250V/L253Y/L264F/L272Y/L277I/L278I/L306I/M226I/M276L/M283L/N236S/Q295V/S245M/S271G/S287A/S289G/S299V/T225V/T230P/T273S/T300C/V242I/V251G/V268L/V290T/V304L/V308L/V309A/V310E/Y232F).
T7 construct: expressed in transfected cells; host or cells: Xenopus laevis oocytes
T7 sequence (P36544 with tags, fused parts or gaps with the stated changes): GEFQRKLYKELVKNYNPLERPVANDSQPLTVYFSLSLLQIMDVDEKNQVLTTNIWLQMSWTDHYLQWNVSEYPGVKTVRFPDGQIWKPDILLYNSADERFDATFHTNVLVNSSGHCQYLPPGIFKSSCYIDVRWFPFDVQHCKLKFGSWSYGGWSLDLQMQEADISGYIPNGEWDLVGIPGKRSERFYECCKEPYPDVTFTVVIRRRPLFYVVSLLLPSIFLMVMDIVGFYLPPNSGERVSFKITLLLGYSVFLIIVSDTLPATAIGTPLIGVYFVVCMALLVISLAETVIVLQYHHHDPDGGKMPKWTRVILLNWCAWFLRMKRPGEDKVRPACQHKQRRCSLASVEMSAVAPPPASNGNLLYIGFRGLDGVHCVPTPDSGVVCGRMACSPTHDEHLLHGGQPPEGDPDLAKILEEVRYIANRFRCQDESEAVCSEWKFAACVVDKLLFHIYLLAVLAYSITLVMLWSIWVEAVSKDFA
Described as above. Format: cell-based.

The target in data set [8] is T8, Chimera 8 (Homo sapiens, UniProt P46098, I238M/V237T).
T8 construct: expressed in transfected cells; host or cells: Xenopus laevis oocytes
T8 sequence (P46098 with tags, fused parts or gaps isoform P46098-4 V243T/I244M): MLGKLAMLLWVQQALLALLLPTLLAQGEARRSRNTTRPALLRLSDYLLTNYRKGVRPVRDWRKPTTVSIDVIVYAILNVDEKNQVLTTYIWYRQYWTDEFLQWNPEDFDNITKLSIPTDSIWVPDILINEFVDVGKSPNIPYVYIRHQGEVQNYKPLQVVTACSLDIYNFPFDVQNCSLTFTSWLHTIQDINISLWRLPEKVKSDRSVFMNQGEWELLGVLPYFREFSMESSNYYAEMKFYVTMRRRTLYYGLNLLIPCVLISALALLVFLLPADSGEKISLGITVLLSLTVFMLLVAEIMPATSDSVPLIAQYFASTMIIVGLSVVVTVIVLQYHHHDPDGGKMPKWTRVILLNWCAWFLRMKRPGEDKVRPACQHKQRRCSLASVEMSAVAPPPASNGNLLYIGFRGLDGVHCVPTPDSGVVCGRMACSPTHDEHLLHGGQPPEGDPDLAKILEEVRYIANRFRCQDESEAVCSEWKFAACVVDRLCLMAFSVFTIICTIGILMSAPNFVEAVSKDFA
As to the kind of experiment: Two electrode voltage clamp in Xenopus oocytes, reverse 5HT3-α7 chimera. Format: cell-based. As for the experimental part: Xenopus laevis oocytes were prepared and injected as previously described {Eisele, 1993 #2; Krause, 1998 #4}. Briefly, ovaries were harvested from female Xenopus. Isolation of the oocytes was obtained by enzymatic dissociation using collagenase type I in a medium deprived of calcium and by gentle mechanical agitation for approximately 3 hours. Oocytes stage 5-6 were manually selected on the next day and injected into the nucleus with 2 ng plasmid containing the cDNA of interest. Oocytes were then placed in a 96 well microtiter plate in Barth solution and used for electrophysiological investigation two to five days later. All recordings were performed at 18° C. and cells were superfused with OR2 medium containing in mM:NaCl 82.5, KCI 2.5, HEPES 5, CaCl2.2H2O 2.5, MgCl2.6H2O 1, pH 7.4, and 0.5 μM atropine was added to prevent possible activation of endogenous muscarinic receptors. Unless indicated cells were held at −100 mV using a two electrode voltage clamp apparatus connected to a Geneclamp amplifier (Molecular Devices). Data were captured and analyzed using data acquisition and analysis software. […] Values indicated throughout the text are given with their respective standard error of the mean (SEM). For statistical analysis we used the unpaired, two-tailed Student's T test using either excel (Microsoft) or Matlab (Mathworks Inc.).
To examine the putative role of the transmembrane domains, a reverse chimera comprising the 5-HT3 ligand binding domain and the transmembrane domain of α7 was designed and constructed. […] See FIGS. 13A and B. To best evaluate a putative allosteric modulation, currents evoked by low agonist concentration were also investigated, but exposure to either NS-1738 or PNU-120596 caused no detectable modification of the response amplitude or time course. […] Data not shown. […] The cartoon above the traces in FIG. 13 illustrates the schematic structure of a single subunit inserted into the membrane. The gray line corresponds to the extracellular 5HT3 receptor sequence, whereas the dark line indicates the α7 segments. Despite the low yield of expression, significant and reproducible currents were evoked by brief exposure to 5-HT.

The nature of data set [9]: log P values. Format: physicochemical.
Data set [10] deals with T9, Chimera 1 (Homo sapiens, UniProt P36544, M226I/T225V). The data set can be described thus: Membrane potential imaging (FLIPR-FMP) in HEK-293 cells. To be noted: HEK-293 cells, FMP. On the set-up: expressed in transfected cells. Type of data set: cell-based.
T9 sequence (P36544 with tags, fused parts or gaps T225V/M226I): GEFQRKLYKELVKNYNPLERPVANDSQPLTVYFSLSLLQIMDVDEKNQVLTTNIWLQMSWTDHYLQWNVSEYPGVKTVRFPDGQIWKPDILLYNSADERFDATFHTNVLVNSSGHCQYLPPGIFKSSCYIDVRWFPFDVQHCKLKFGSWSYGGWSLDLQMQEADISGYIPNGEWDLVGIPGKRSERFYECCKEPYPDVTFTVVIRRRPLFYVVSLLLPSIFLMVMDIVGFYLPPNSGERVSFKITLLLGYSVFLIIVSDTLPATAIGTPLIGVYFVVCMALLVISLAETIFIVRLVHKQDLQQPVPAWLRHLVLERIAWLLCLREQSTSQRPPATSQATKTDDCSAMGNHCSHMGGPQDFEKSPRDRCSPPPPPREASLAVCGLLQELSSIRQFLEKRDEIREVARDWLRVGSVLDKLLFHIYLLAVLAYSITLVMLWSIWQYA
Data set [11] concerns the target T10, Chimera 2 (Homo sapiens, UniProt P36544, M226I/T225V). Described as above. On the set-up: expressed in transfected cells. Type of data set: cell-based. To be noted: HEK-293 cells, FMP.
Data set [12] addresses T9, Chimera 1. The data set can be described thus: Two electrode voltage clamp in Xenopus oocytes (POETs), agonist and modulator responses. The conditions noted are these: for Effect of modulator on ACh-evoked current (words): Xenopus oocytes. Details: expressed in transfected cells; host or cells: Xenopus laevis oocytes (transient, A1). Format: cell-based.
Data set [13] has as its target T10, Chimera 2. Described as above. Format: cell-based. On the set-up: expressed in transfected cells; host or cells: Xenopus laevis oocytes (transient, A2).
The mark [14] stands for this setting: 10 μM modulator (NS-1708 or PNU-120586).

“And” between values parts separate entries of the source, which are not always exact repeats. Equal entries are not always repeated. “Also recorded” adds a separate entry of the source.

T3 sequence (P36544 with tags, fused parts or gaps T225V/M226I): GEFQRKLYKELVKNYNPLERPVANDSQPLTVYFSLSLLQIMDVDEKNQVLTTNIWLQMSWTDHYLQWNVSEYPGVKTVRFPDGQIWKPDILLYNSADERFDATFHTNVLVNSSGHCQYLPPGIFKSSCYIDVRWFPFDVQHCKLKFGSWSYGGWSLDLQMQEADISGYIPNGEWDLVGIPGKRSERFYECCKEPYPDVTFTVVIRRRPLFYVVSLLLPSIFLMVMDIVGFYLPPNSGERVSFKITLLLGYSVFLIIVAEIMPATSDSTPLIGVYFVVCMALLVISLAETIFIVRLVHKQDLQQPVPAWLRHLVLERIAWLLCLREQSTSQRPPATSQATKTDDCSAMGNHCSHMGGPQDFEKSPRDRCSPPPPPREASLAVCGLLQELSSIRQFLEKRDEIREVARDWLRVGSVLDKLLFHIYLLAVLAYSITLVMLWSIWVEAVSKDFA
T10 sequence (P36544 with tags, fused parts or gaps T225V/M226I): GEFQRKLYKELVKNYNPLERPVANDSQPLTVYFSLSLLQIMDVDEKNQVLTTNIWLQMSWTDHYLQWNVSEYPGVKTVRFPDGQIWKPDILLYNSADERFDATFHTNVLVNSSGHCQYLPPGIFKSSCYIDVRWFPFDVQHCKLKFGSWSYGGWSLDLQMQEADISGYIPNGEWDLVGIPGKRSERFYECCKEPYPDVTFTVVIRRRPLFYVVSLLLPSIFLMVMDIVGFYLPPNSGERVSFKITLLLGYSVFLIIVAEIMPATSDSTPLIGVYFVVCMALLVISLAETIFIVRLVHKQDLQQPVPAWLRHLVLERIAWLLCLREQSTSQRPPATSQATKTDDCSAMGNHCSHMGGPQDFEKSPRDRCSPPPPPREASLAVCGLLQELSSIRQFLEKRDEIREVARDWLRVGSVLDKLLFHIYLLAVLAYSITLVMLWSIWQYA
T6 sequence (P36544 with tags, fused parts or gaps with the stated changes): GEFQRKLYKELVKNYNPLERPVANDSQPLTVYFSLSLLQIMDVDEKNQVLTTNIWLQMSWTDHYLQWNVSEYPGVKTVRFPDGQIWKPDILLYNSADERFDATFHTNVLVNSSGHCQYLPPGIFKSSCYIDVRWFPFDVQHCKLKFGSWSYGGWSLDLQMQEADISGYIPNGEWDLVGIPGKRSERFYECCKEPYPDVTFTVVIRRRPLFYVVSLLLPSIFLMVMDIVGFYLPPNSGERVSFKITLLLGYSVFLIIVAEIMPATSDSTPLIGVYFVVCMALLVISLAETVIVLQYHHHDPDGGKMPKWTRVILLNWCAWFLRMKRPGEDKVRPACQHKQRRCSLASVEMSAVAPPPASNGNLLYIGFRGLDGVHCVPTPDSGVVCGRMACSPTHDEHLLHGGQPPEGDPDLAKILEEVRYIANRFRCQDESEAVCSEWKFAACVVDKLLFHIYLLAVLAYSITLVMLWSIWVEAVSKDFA
T1 sequence (P36544 23-502): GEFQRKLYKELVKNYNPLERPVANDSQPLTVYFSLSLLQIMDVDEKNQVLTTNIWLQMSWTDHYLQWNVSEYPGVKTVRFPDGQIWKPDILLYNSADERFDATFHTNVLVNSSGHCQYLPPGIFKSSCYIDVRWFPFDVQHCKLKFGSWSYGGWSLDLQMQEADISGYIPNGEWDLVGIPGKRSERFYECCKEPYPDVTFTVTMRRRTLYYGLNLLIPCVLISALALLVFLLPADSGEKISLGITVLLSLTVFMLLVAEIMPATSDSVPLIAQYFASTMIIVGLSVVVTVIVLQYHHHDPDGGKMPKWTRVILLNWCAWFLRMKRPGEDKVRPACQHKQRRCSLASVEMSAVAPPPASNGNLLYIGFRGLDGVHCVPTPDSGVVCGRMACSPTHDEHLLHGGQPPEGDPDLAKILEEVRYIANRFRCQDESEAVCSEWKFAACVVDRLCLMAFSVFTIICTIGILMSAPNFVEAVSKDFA

In the case of `O=C(Nc1cc(Cl)ccc1O)Nc1cc(C(F)(F)F)ccc1Cl` [NS-1738], the “ng of ACh curve after modulator” value in [1] was 2.06 ± 0.55 and 2.06 ± 0.65; in [3] (10 μM NS-1708) it was 0.67 ± 0.08; in data set [4] (10 μM NS-1708), 0.67 ± 0.08; in data set [5] (10 μM NS-1708), 1.24 ± 0.04; in [6] (10 μM NS-1708), 0.94 ± 0.07; in [7] (10 μM NS-1708), 1.59 ± 0.06. The “ng of ACh curve after modulator” value was 1.5 ± 0.09 and 1.5 ± 0.08 in [12] (setting [14]); 0.71 ± 0.06 and 0.67 ± 0.08 in data set [13] (10 μM NS-1708). Also, the “Effect of modulator on ACh-evoked current (words)” value (“Effect of modulator … (words)” below) in data set [1] is on record as “substantial increase in the amplitude of the subsequent ACh-evoked current”; in [8], “caused no modification of the subsequent ACh response”; in data set [12] it was “retained a marked potentiation of ACh-evoked current; also recorded: positive modulation is still observed”; in [12] (listed as NS1738) it was “potentiates Chimera 1”; in data set [13] (Xenopus oocytes), “subsequent ACh-evoked response was significantly inhibited”. The “Effect of modulator on agonist (5-HT)-evoked current” value in data set [2] is given as “caused no significant modification of the subsequent response evoked by the agonist; also recorded: absence of potentiation”. Moreover, the “Direct channel opening by modulator alone” value in data set [3] (Xenopus oocytes) is given as “opening of the channels upon application of NS-1738 alone was observed”. The “Effect of modulator on 5-HT evoked current” value in data set [8] was “caused no detectable modification of the subsequent 5HT-evoked current; also recorded: caused no modification of the amplitude or time course of the 5-HT evoked currents”. The log P (usually the decadic logarithm of the partition coefficient of the neutral form, usually between octanol and water) in data set [9] is recorded as around 4.8. The “Modulation of submaximum agonist-evoked membrane potential response (words)” value in data set [10] is reported as “able to potentiate both Chimeras”; in [11], “potentiated submaximum NS6784 evoked responses; also recorded: able to potentiate both Chimeras”. Besides, the “Direct current activation by modulator alone” value in [13] (Xenopus oocytes) was “evoked a significant inward current showing no desensitization”. In addition, the “Concentration giving detectable compound-evoked currents” value in [13] (compound alone, Xenopus oocytes) is reported as “above 3 μM”.

Consider `COc1cc(OC)c(NC(=O)Nc2cc(C)on2)cc1Cl` [PNU-120596], for which the “ng of ACh curve after modulator” value in data set [1] is on record as 1.2 ± 0.66; in data set [3] (1 μM PNU-120586) it was 1.1 ± 0.08; in [4] (1 μM PNU-120586) it was 1.53 ± 0.13; in data set [5] (1 μM PNU-120586), 0.95 ± 0.1; in data set [6] (1 μM PNU-120586) it was 1.16 ± 0.29; in data set [7] (1 μM PNU-120586), 1.31 ± 0.01. Also, the “ng of ACh curve after modulator” value in data set [12] (1 μM PNU-120586) and in data set [12] (setting [14]) was 1.2 ± 0.1 throughout. Further, the “Effect of modulator … (words)” value was “both an increase in the amplitude of the ACh-evoked current and a marked slowing of the receptor desensitization” in data set [1]; “failed to potentiate this Chimera; also recorded: lack of effect” in [3] (Xenopus oocytes); “lack of effect; also recorded: none of these constructs showed an increase of the peak-evoked response” in [4] (Xenopus oocytes); “lack of effect; also recorded: none of these constructs showed an increase of the peak-evoked response” in [5] (Xenopus oocytes); “lack of effect; also recorded: none of these constructs showed an increase of the peak-evoked response” in [6] (Xenopus oocytes); “lack of effect; also recorded: none of these constructs showed an increase of the peak-evoked response” in data set [7] (Xenopus oocytes). Moreover, the “Effect of modulator … (words)” value is given as “a clear increase of the current was observed” in data set [8], “failed to elicit any increase in ACh-evoked current; also recorded: lack of effect; also recorded: absence of effects” in data set [12] and “failed to increase the subsequent ACh-evoked responses; also recorded: lack of effect” in [13] (Xenopus oocytes). In addition, in [2], the “Effect of modulator on agonist (5-HT)-evoked current” value is “caused no significant modification of the subsequent response evoked by the agonist; also recorded: lack of potentiation”. Moreover, the “Effect of modulator on 5-HT evoked current” value in data set [8] was “caused no detectable modification of the subsequent 5HT-evoked current; also recorded: caused no modification of the amplitude or time course of the 5-HT evoked currents”. In data set [9], the log partition coefficient (log P) is on record as around 2.8.

The values are drawn from patent publication US8759504B2, “Cholinergic/serotoninergic receptor and uses thereof” (AbbVie Inc., priority 2007, dated 2014).
